Test results taken from patent publication US20200022370A1, “MICROBIOCIDAL OXADIAZOLE DERIVATIVES” (SYNGENTA PARTICIPATIONS AG, priority 2016, published 2020).
Read-outs that look alike come from different tables or passages of the source.

Legend:
[1] = test system: Puccinia recondita f. Sp. Tritici; assay: Puccinia recondita f. sp. tritici / wheat / leaf disc preventative (brown rust); type: in vivo; conditions: foliar, read-out: disease control
Description: Leaf disks or leaf segments of various plant species are cut from plants grown in a greenhouse. The cut leaf disks or segments are placed in multiwell plates (24-well format) onto water agar. The leaf disks are sprayed with a test solution before (preventative) or after (curative) inoculation. Compounds to be tested are prepared as DMSO solutions (max. 10 mg/ml) which are diluted to the appropriate concentration with 0.025% Tween20 just before spraying. The inoculated leaf disks or segments are incubated under defined conditions (temperature, relative humidity, light, etc.) according to the respective test system. A single evaluation of disease level is carried out 3 to 14 days after inoculation, depending on the pathosystem. Percent disease control relative to the untreated check leaf disks or segments is then calculated.
Example 1: Fungicidal Activity Against Puccinia recondita f. Sp. Tritici/Wheat/Leaf Disc Preventative (Brown Rust)
Wheat leaf segments cv. Kanzler were placed on agar in multiwell plates (24-well format) and sprayed with the Formulated test compound diluted in water. The leaf disks were inoculated with a spore suspension of the fungus 1 day after application. The inoculated leaf segments were incubated at 19° C. and 75% relative humidity (rh) under a light regime of 12 hours light/12 hours darkness in a climate cabinet and the activity of a compound was assessed as percent disease control compared to untreated when an appropriate level of disease damage appears in untreated check leaf segments (7 to 9 days after application).
The following compounds at 200 ppm in the applied Formulation give at least 80% disease control in this test when compared to untreated control leaf disks under the same conditions, which show extensive disease development.

[2] = test system: Glomerella lacenarium (Colletotrichum lacenarium); assay: Glomerella lacenarium (Colletotrichum lacenarium) liquid culture / cucumber / preventative (anthracnose); type: cell-based; conditions: read-out: disease control
Description: Mycelia fragments or conidia suspensions of a fungus prepared either freshly from liquid cultures of the fungus or from cryogenic storage, are directly mixed into nutrient broth. DMSO solutions of the test compound (max. 10 mg/ml) are diluted with 0.025% Tween20 by a factor of 50 and 10 μl of this solution is pipetted into a microtiter plate (96-well format). The nutrient broth containing the fungal spores/mycelia fragments is then added to give an end concentration of the tested compound. The test plates are incubated in the dark at 24° C. and 96% relative humidity. The inhibition of fungal growth is determined photometrically after 2 to 7 days, depending on the pathosystem, and percent antifungal activity relative to the untreated check is calculated.
Example 4: Fungicidal Activity Against Glomerella lacenarium (Colletotrichum lacenarium) Liquid Culture/Cucumber/Preventative (Anthracnose)
Conidia of the fungus from cryogenic storage are directly mixed into nutrient broth (PDB-potato dextrose broth). After placing a (DMSO) solution of test compound into a microtiter plate (96-well format), the nutrient broth containing the fungal spores is added. The test plates are incubated at 24° C. and the inhibition of growth is measured photometrically 3 to 4 days after application.
The following compounds at 20 ppm in the applied Formulation give at least 80% disease control in this test when compared to untreated control under the same conditions, which show extensive disease development.

[3] = 200 ppm in the applied formulation, wheat leaf segments cv. Kanzler, inoculated 1 day after application, vs untreated, 7 to 9 days after application
[4] = 20 ppm, liquid culture in PDB, 24° C., inhibition of growth measured photometrically 3 to 4 days after application, vs untreated

## CC(C)(C)OC(=O)NC(C(=O)Nc1ccc(-c2noc(C(F)(F)F)n2)cc1)c1ccccc1 (centres unmarked) [Compound 1.18, tert-butyl N-[2-oxo-1-phenyl-2-[4-[5-(trifluoromethyl)-1,2,4-oxadiazol-3-yl]anilino]ethyl] carbamate]
[1]; [3]
  pest or weed control at 200 ppm: ≥ 80%

## O=C(CF)Nc1ccc(-c2noc(C(F)(F)F)n2)cc1 [Compound 1.19, 2-fluoro-N-[4-[5-(trifluoromethyl)-1,2,4-oxadiazol-3-yl]phenyl]acetamide]
[1]
  pest or weed control at 200 ppm: ≥ 80%
[2]
  inhibition of growth at 20 ppm: ≥ 80%

## CC=CC=CC(=O)NC1(C(=O)Nc2ccc(-c3noc(C(F)(F)F)n3)cc2)CCCC(C)C1 (centres unmarked) [Compound 1.21, 1-(hexa-2,4-dienoylamino)-3-methyl-N-[4-[5-(trifluoromethyl)-1,2,4-oxadiazol-3-yl]phenyl]cyclo-hexanecarboxamide]
[1]; [3]
  pest or weed control at 200 ppm: ≥ 80%

## CC(=O)Nc1ccc(CC(=O)Nc2ccc(-c3noc(C(F)(F)F)n3)cc2)cc1 [Compound 1.26, 2-(4-acetamidophenyl)-N-[4-[5-(trifluoromethyl)-1,2,4-oxadiazol-3-yl]phenyl]acetamide]
[1]; [3]
  pest or weed control at 200 ppm: ≥ 80%

## O=C(CSc1ccccc1)Nc1ccc(-c2noc(C(F)(F)F)n2)cc1 [Compound 1.44, 2-phenylsulfanyl-N-[4-[5-(trifluoromethyl)-1,2,4-oxadiazol-3-yl]phenyl]acetamide]
[1]; [3]
  pest or weed control at 200 ppm: ≥ 80%
[2]; [4]
  inhibition of growth at 20 ppm: ≥ 80%

## O=C(Cc1ccc2c(c1)OCO2)Nc1ccc(-c2noc(C(F)(F)F)n2)nc1 [Compound 1.48, 2-(1,3-benzodioxol-5-yl)-N-[6-[5-(trifluoromethyl)-1,2,4-oxadiazol-3-yl]-3-pyridyl]acetamide]
[2]; [4]
  inhibition of growth at 20 ppm: ≥ 80%

## N#Cc1cc(F)c(C(=O)Nc2ccc(-c3noc(C(F)(F)F)n3)nc2)c(F)c1 [Compound 1.49, 4-cyano-2,6-difluoro-N-[6-[5-(trifluoromethyl)-1,2,4-oxadiazol-3-yl]-3-pyridyl]benzamide]
[1]; [3]
  pest or weed control at 200 ppm: ≥ 80%

## CON(C)C(=O)Nc1ccc(-c2noc(C(F)(F)F)n2)nc1 [Compound 1.65, 1-methoxy-1-methyl-3-[6-[5-(trifluoromethyl)-1,2,4-oxadiazol-3-yl]-3-pyridyl]urea]
[2]; [4]
  inhibition of growth at 20 ppm: ≥ 80%

## O=C(CCc1ccccc1)Nc1ccc(-c2noc(C(F)(F)F)n2)cc1 [Compound 1.76, 3-phenyl-N-[4-[5-(trifluoromethyl)-1,2,4-oxadiazol-3-yl]phenyl] propanamide]
[1]; [3]
  pest or weed control at 200 ppm: ≥ 80%
[2]; [4]
  inhibition of growth at 20 ppm: ≥ 80%

## CC(Oc1ccccc1)C(=O)Nc1ccc(-c2noc(C(F)(F)F)n2)cc1 (centres unmarked) [Compound 1.79, 2-phenoxy-N-[4-[5-(trifluoromethyl)-1,2,4-oxadiazol-3-yl]phenyl] propanamide]
[2]; [4]
  inhibition of growth at 20 ppm: ≥ 80%

## O=C(CC1CC1)Nc1ccc(-c2noc(C(F)(F)F)n2)cc1 [Compound 1.80, 2-cyclopropyl-N-[4-[5-(trifluoromethyl)-1,2,4-oxadiazol-3-yl]phenyl]acetamide]
[1]; [3]
  pest or weed control at 200 ppm: ≥ 80%
[2]; [4]
  inhibition of growth at 20 ppm: ≥ 80%

## O=C(Nc1ccc(-c2noc(C(F)(F)F)n2)cc1)C1CSC1 [Compound 1.82, N-[4-[5-(trifluoromethyl)-1,2,4-oxadiazol-3-yl]phenyl]thietane-3-carboxamide]
[1]; [3]
  pest or weed control at 200 ppm: ≥ 80%
[2]; [4]
  inhibition of growth at 20 ppm: ≥ 80%

## COC(=O)CCC(=O)Nc1ccc(-c2noc(C(F)(F)F)n2)cc1 [Compound 1.83, methyl 4-oxo-4-[4-[5-(trifluoromethyl)-1,2,4-oxadiazol-3-yl]anilino]butanoate]
[1]; [3]
  pest or weed control at 200 ppm: ≥ 80%
[2]; [4]
  inhibition of growth at 20 ppm: ≥ 80%

## O=C(Cc1cccnc1)Nc1ccc(-c2noc(C(F)(F)F)n2)cc1 [Compound 1.84, 2-(3-pyridyl)-N-[4-[5-(trifluoromethyl)-1,2,4-oxadiazol-3-yl]phenyl]acetamide]
[1]; [3]
  pest or weed control at 200 ppm: ≥ 80%
[2]; [4]
  inhibition of growth at 20 ppm: ≥ 80%

## C=CCCC(=O)Nc1ccc(-c2noc(C(F)(F)F)n2)cc1 [Compound 1.88, N-[4-[5-(trifluoromethyl)-1,2,4-oxadiazol-3-yl]phenyl]pent-4-enamide]
[1]; [3]
  pest or weed control at 200 ppm: ≥ 80%
[2]; [4]
  inhibition of growth at 20 ppm: ≥ 80%

## O=C(Cc1cccs1)Nc1ccc(-c2noc(C(F)(F)F)n2)cc1 [Compound 1.89, 2-(2-thienyl)-N-[4-[5-(trifluoromethyl)-1,2,4-oxadiazol-3-yl]phenyl]acetamide]
[1]; [3]
  pest or weed control at 200 ppm: ≥ 80%
[2]; [4]
  inhibition of growth at 20 ppm: ≥ 80%

## C=CCCCCC(=O)Nc1ccc(-c2noc(C(F)(F)F)n2)cc1 [Compound 1.93, N-[4-[5-(trifluoromethyl)-1,2,4-oxadiazol-3-yl]phenyl]hept-6-enamide]
[2]; [4]
  inhibition of growth at 20 ppm: ≥ 80%

## C=CCC(=O)Nc1ccc(-c2noc(C(F)(F)F)n2)cc1 [Compound 1.94, N-[4-[5-(trifluoromethyl)-1,2,4-oxadiazol-3-yl]phenyl]but-3-enamide]
[1]; [3]
  pest or weed control at 200 ppm: ≥ 80%
[2]; [4]
  inhibition of growth at 20 ppm: ≥ 80%

## CC(=O)OCC(=O)Nc1ccc(-c2noc(C(F)(F)F)n2)cc1 [Compound 1.95, [2-oxo-2-[4-[5-(trifluoromethyl)-1,2,4-oxadiazol-3-yl]anilino]ethyl] acetate]
[1]; [3]
  pest or weed control at 200 ppm: ≥ 80%
[2]; [4]
  inhibition of growth at 20 ppm: ≥ 80%

## O=C(Cc1ccc(C(F)(F)F)nc1)Nc1ccc(-c2noc(C(F)(F)F)n2)cc1 [Compound 1.108, N-[4-[5-(trifluoromethyl)-1,2,4-oxadiazol-3-yl]phenyl]-2-[6-(trifluoromethyl)-3-pyridyl]acetamide]
[2]; [4]
  inhibition of growth at 20 ppm: ≥ 80%

## CC(C)CCC(=O)Nc1ccc(-c2noc(C(F)(F)F)n2)cc1 [Compound 1.110, 4-methyl-N-[4-[5-(trifluoromethyl)-1,2,4-oxadiazol-3-yl]phenyl] pentanamide]
[2]; [4]
  inhibition of growth at 20 ppm: ≥ 80%

## O=C(Cc1cccc(C(F)(F)F)n1)Nc1ccc(-c2noc(C(F)(F)F)n2)cc1 [Compound 1.114, N-[4-[5-(trifluoromethyl)-1,2,4-oxadiazol-3-yl]phenyl]-2-[6-(trifluoromethyl)-2-pyridyl]acetamide]
[2]; [4]
  inhibition of growth at 20 ppm: ≥ 80%

## O=C(Cc1cc(F)cc(F)c1)Nc1ccc(-c2noc(C(F)(F)F)n2)cc1 [Compound 1.117, 2-(3,5-difluorophenyl)-N-[4-[5-(trifluoromethyl)-1,2,4-oxadiazol-3-yl]phenyl]acetamide]
[2]; [4]
  inhibition of growth at 20 ppm: ≥ 80%

## O=C(Cc1ccc(OC(F)(F)F)cc1)Nc1ccc(-c2noc(C(F)(F)F)n2)cc1 [Compound 1.119, 2-[4-(trifluoromethoxy)phenyl]-N-[4-[5-(trifluoromethyl)-1,2,4-oxadiazol-3-yl]phenyl]acetamide]
[2]; [4]
  inhibition of growth at 20 ppm: ≥ 80%

## CN(C(=O)c1ccccc1Cl)c1ccc(-c2noc(C(F)(F)F)n2)cc1 [Compound 1.134, 2-chloro-N-methyl-N-[4-[5-(trifluoromethyl)-1,2,4-oxadiazol-3-yl]phenyl]benzamide]
[2]; [4]
  inhibition of growth at 20 ppm: ≥ 80%

## CCOCC(=O)Nc1ccc(-c2noc(C(F)(F)F)n2)cc1 [Compound 2.10, 2-ethoxy-N-[4-[5-(trifluoromethyl)-1,2,4-oxadiazol-3-yl]phenyl] acetamide]
[2]; [4]
  inhibition of growth at 20 ppm: ≥ 80%

## CC1(C)CC1C(=O)Nc1ccc(-c2noc(C(F)(F)F)n2)cc1 (centres unmarked) [Compound 2.12, 2,2-dimethyl-N-[4-[5-(trifluoromethyl)-1,2,4-oxadiazol-3-yl]phenyl] cyclopropane-carboxamide]
[2]; [4]
  inhibition of growth at 20 ppm: ≥ 80%

## C=CCON(C)C(=O)Nc1ccc(-c2noc(C(F)(F)F)n2)cc1 [Compound 2.21, 1-allyloxy-1-methyl-3-[4-[5-(trifluoromethyl)-1,2,4-oxadiazol-3-yl]phenyl]urea]
[2]; [4]
  inhibition of growth at 20 ppm: ≥ 80%

## O=C(NCC(F)(F)F)Nc1ccc(-c2noc(C(F)(F)F)n2)cc1 [Compound 2.22, 1-(2,2,2-trifluoroethyl)-3-[4-[5-(trifluoromethyl)-1,2,4-oxadiazol-3-yl]phenyl]urea]
[2]; [4]
  inhibition of growth at 20 ppm: ≥ 80%

## CN(C(=O)CC1CC1)c1ccc(-c2noc(C(F)(F)F)n2)cc1 [Compound 2.26, 2-cyclopropyl-N-methyl-N-[4-[5-(trifluoromethyl)-1,2,4-oxadiazol-3-yl]phenyl]acetamide]
[2]; [4]
  inhibition of growth at 20 ppm: ≥ 80%
